Results reported in PubChem BioAssay (NCI).
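Cultured in 96-well plates, cells were exposed to test compound for 48 hours across five concentrations. The concentration for full growth arrest is given as TGI.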

Assays:
Assay in all cases: DTP human tumour cell line panel, 48 h
SN12C renal = tested on: SN12C renal
MDA-N = tested on: MDA-N
HCC-2998 colon = tested on: HCC-2998 colon
HT29 colon = tested on: HT29 colon
NCI/ADR-RES ovarian = tested on: NCI/ADR-RES ovarian
HL-60(TB) leukemia = tested on: HL-60(TB) leukemia
MCF7 breast = tested on: MCF7 breast
LOX IMVI melanoma = tested on: LOX IMVI melanoma
UACC-257 melanoma = tested on: UACC-257 melanoma
RXF 393 renal = tested on: RXF 393 renal
A549 NSCLC = tested on: A549 NSCLC
OVCAR-8 ovarian = tested on: OVCAR-8 ovarian
SK-MEL-2 melanoma = tested on: SK-MEL-2 melanoma
HCT-15 colon = tested on: HCT-15 colon
SNB-75 CNS = tested on: SNB-75 CNS
KM12 colon = tested on: KM12 colon
U251 CNS = tested on: U251 CNS
HCT-116 colon = tested on: HCT-116 colon
ACHN renal = tested on: ACHN renal
NCI-H522 lung = tested on: NCI-H522 lung
UACC-62 melanoma = tested on: UACC-62 melanoma
MOLT-4 leukemia = tested on: MOLT-4 leukemia
SNB-19 CNS = tested on: SNB-19 CNS
SK-MEL-5 melanoma = tested on: SK-MEL-5 melanoma
UO-31 renal = tested on: UO-31 renal
T-47D breast = tested on: T-47D breast
HOP-62 NSCLC = tested on: HOP-62 NSCLC
SW-620 colon = tested on: SW-620 colon
OVCAR-4 ovarian = tested on: OVCAR-4 ovarian
TK-10 renal = tested on: TK-10 renal
OVCAR-5 ovarian = tested on: OVCAR-5 ovarian
NCI-H23 lung = tested on: NCI-H23 lung
K-562 leukemia = tested on: K-562 leukemia
IGROV1 ovarian = tested on: IGROV1 ovarian
HOP-92 NSCLC = tested on: HOP-92 NSCLC
BT-549 breast = tested on: BT-549 breast
OVCAR-3 ovarian = tested on: OVCAR-3 ovarian
SK-MEL-28 melanoma = tested on: SK-MEL-28 melanoma
CAKI-1 renal = tested on: CAKI-1 renal
COLO 205 colon = tested on: COLO 205 colon
CCRF-CEM leukemia = tested on: CCRF-CEM leukemia
MDA-MB-435 = tested on: MDA-MB-435
SF-295 CNS = tested on: SF-295 CNS
EKVX NSCLC = tested on: EKVX NSCLC
SR leukemia = tested on: SR leukemia
NCI-H460 lung = tested on: NCI-H460 lung
MDA-MB-231 breast = tested on: MDA-MB-231 breast
A498 renal = tested on: A498 renal
SF-268 CNS = tested on: SF-268 CNS
DU-145 prostate = tested on: DU-145 prostate
NCI-H226 lung = tested on: NCI-H226 lung
PC-3 prostate = tested on: PC-3 prostate
MALME-3M melanoma = tested on: MALME-3M melanoma
786-0 renal = tested on: 786-0 renal
HS 578T breast = tested on: HS 578T breast
SF-539 CNS = tested on: SF-539 CNS
M14 melanoma = tested on: M14 melanoma
RPMI-8226 leukemia = tested on: RPMI-8226 leukemia
SK-OV-3 ovarian = tested on: SK-OV-3 ovarian

## CCOC(=O)C1C(=O)CC(O)(OCC)C(C(=O)OCC)C1c1ccc(OC)cc1 (centres undefined)
SN12C renal
  TGI: > 100 µM
MDA-N
  TGI: > 100 µM
HCC-2998 colon
  TGI: > 100 µM
HT29 colon
  TGI: > 100 µM
NCI/ADR-RES ovarian
  TGI: > 100 µM
HL-60(TB) leukemia
  TGI: > 100 µM
MCF7 breast
  TGI: > 100 µM
LOX IMVI melanoma
  TGI: > 100 µM
UACC-257 melanoma
  TGI: > 100 µM
RXF 393 renal
  TGI: > 100 µM
A549 NSCLC
  TGI: > 100 µM
OVCAR-8 ovarian
  TGI: > 100 µM
SK-MEL-2 melanoma
  TGI: > 100 µM
HCT-15 colon
  TGI: > 100 µM
SNB-75 CNS
  TGI: > 100 µM
KM12 colon
  TGI: > 100 µM
U251 CNS
  TGI: > 100 µM
HCT-116 colon
  TGI: > 100 µM
ACHN renal
  TGI: > 100 µM
NCI-H522 lung
  TGI: > 100 µM
UACC-62 melanoma
  TGI: > 100 µM
MOLT-4 leukemia
  TGI: > 100 µM
SNB-19 CNS
  TGI: > 100 µM
SK-MEL-5 melanoma
  TGI: > 100 µM
UO-31 renal
  TGI: > 100 µM
T-47D breast
  TGI: > 100 µM
HOP-62 NSCLC
  TGI: > 100 µM
SW-620 colon
  TGI: > 100 µM
OVCAR-4 ovarian
  TGI: > 100 µM
TK-10 renal
  TGI: > 100 µM
OVCAR-5 ovarian
  TGI: > 100 µM
NCI-H23 lung
  TGI: > 100 µM
K-562 leukemia
  TGI: > 100 µM
IGROV1 ovarian
  TGI: > 100 µM
HOP-92 NSCLC
  TGI: > 100 µM
BT-549 breast
  TGI: > 100 µM
OVCAR-3 ovarian
  TGI: > 100 µM
SK-MEL-28 melanoma
  TGI: > 100 µM
CAKI-1 renal
  TGI: > 100 µM
COLO 205 colon
  TGI: > 100 µM
CCRF-CEM leukemia
  TGI: > 100 µM
MDA-MB-435
  TGI: > 100 µM
SF-295 CNS
  TGI: > 100 µM
EKVX NSCLC
  TGI: > 100 µM
SR leukemia
  TGI: > 100 µM
NCI-H460 lung
  TGI: > 100 µM
MDA-MB-231 breast
  TGI: > 100 µM
A498 renal
  TGI: > 100 µM
SF-268 CNS
  TGI: > 100 µM
DU-145 prostate
  TGI: > 100 µM
NCI-H226 lung
  TGI: > 100 µM
PC-3 prostate
  TGI: > 100 µM
MALME-3M melanoma
  TGI: > 100 µM
786-0 renal
  TGI: > 100 µM

## O=C(OCCN=C1c2ccccc2CCc2ccccc21)c1cc([N+](=O)[O-])cc([N+](=O)[O-])c1
SN12C renal
  TGI: > 31.6 µM
MDA-N
  TGI: > 31.6 µM
HT29 colon
  TGI: > 31.6 µM
NCI/ADR-RES ovarian
  TGI: > 31.6 µM
HL-60(TB) leukemia
  TGI: > 100 µM
MCF7 breast
  TGI: > 31.6 µM
LOX IMVI melanoma
  TGI: > 31.6 µM
UACC-257 melanoma
  TGI: > 31.6 µM
RXF 393 renal
  TGI: > 31.6 µM
A549 NSCLC
  TGI: > 31.6 µM
OVCAR-8 ovarian
  TGI: > 31.6 µM
HS 578T breast
  TGI: > 31.6 µM
SF-539 CNS
  TGI: > 31.6 µM
SK-MEL-2 melanoma
  TGI: > 31.6 µM
HCT-15 colon
  TGI: > 31.6 µM
M14 melanoma
  TGI: > 31.6 µM
SNB-75 CNS
  TGI: > 100 µM
KM12 colon
  TGI: > 31.6 µM
U251 CNS
  TGI: > 100 µM
HCT-116 colon
  TGI: > 31.6 µM
ACHN renal
  TGI: > 31.6 µM
UACC-62 melanoma
  TGI: > 31.6 µM
MOLT-4 leukemia
  TGI: 7.09 µM
SNB-19 CNS
  TGI: > 31.6 µM
SK-MEL-5 melanoma
  TGI: > 31.6 µM
UO-31 renal
  TGI: > 100 µM
HOP-62 NSCLC
  TGI: > 31.6 µM
SW-620 colon
  TGI: > 31.6 µM
OVCAR-4 ovarian
  TGI: > 100 µM
TK-10 renal
  TGI: > 31.6 µM
OVCAR-5 ovarian
  TGI: > 31.6 µM
NCI-H23 lung
  TGI: > 31.6 µM
K-562 leukemia
  TGI: > 100 µM
IGROV1 ovarian
  TGI: > 31.6 µM
HOP-92 NSCLC
  TGI: > 31.6 µM
BT-549 breast
  TGI: > 100 µM
OVCAR-3 ovarian
  TGI: > 31.6 µM
SK-MEL-28 melanoma
  TGI: > 31.6 µM
CAKI-1 renal
  TGI: > 31.6 µM
COLO 205 colon
  TGI: > 31.6 µM
CCRF-CEM leukemia
  TGI: > 100 µM
MDA-MB-435
  TGI: > 31.6 µM
SF-295 CNS
  TGI: > 31.6 µM
RPMI-8226 leukemia
  TGI: 8.14 µM
EKVX NSCLC
  TGI: > 31.6 µM
SR leukemia
  TGI: 5.5 µM
NCI-H460 lung
  TGI: > 31.6 µM
MDA-MB-231 breast
  TGI: > 31.6 µM
SF-268 CNS
  TGI: > 31.6 µM
DU-145 prostate
  TGI: > 31.6 µM
SK-OV-3 ovarian
  TGI: > 100 µM
NCI-H226 lung
  TGI: > 31.6 µM
PC-3 prostate
  TGI: > 31.6 µM
MALME-3M melanoma
  TGI: > 31.6 µM
786-0 renal
  TGI: > 31.6 µM
